From patent publication US20050209278A1, “Piperidinyl- and piperazinyl-sulfonylmethyl hydroxamic acids and their use as protease inhibitors” (priority 2002, published 2005)

Molecular target: T1, MMP-1 (Homo sapiens, UniProt P03956)
T1 construct: made in house; host or cells: MMP-1-transfected HT-1080 cells (spent media)
T1 sequence (P03956 100-469): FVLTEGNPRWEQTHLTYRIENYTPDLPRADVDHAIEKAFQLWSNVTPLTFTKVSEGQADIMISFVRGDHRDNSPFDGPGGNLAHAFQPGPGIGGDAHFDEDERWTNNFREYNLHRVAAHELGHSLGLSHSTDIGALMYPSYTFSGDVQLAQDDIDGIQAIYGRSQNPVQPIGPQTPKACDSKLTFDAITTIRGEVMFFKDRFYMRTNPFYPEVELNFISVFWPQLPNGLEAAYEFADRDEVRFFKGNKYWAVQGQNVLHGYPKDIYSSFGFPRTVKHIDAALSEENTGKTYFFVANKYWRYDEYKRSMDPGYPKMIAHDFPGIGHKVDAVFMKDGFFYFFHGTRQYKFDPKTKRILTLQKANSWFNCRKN
Assay: In vitro MMP inhibition, IC50 determination (fluorogenic substrate I)
Type: biochemical
Conditions: value in parentheses; read-out: MMP-1 (IC-50)
Method: Several hydroxamic acids and salts thereof were analyzed in in vitro assays to determine their ability to inhibit the MMP cleavage of peptide substrates. […] and IC50 constants were calculated from the assayed hydroxamic acid-MMP interactions. Human recombinant MMP-1, MMP-2, MMP-9, MMP-13, and MMP-14 were used in this assay. All enzymes were prepared in Assignee's laboratories following usual laboratory procedures. Protocols for the preparation and use of these enzymes are available in the scientific literature. See, e.g., Enzyme Nomenclature (Academic Press, San Diego, Calif., 1992) (and the citations therein). See also, Freije et al., “Molecular cloning and expression of collagenase-3, a novel human matrix metalloproteinase produced by breast carcinomas,” J Biol. Chem., 269(24), 16766-16773 (1994). The MMP-1 proenzyme was purified from the spent media of MMP-1-transfected HT-1080 cells provided by Dr. Harold Welgus of Washington University (St. Louis, Mo.). The protein was purified on a zinc chelating column. All MMPs were activated using 4-aminophenylmercuric acetate (“APMA”, Sigma Chemical, St. Louis, Mo.) or trypsin. MMP-9 also was activated using human recombinant MMP-3 (purified in Assignee's laboratory following standard cloning and purification techniques). […] Substrate (I) was purchased from Baychem (Redwood City, Calif.), and substrate II was prepared Assignee's laboratory. Substrate I was used in the IC50 determination assays, while substrate II was used in the Ki determination assays. In the absence of MMP inhibitory activity, either substrate is cleaved at the Gly-Leu peptide bond. […] The stock solutions of the assayed hydroxamic acids (or salts thereof) were prepared in 1% dimethyl sulfoxide (DMSO). […] The experiment controls contained the same amount of Buffer A/DMSO as the assayed sample, but contained no hydroxamic acid (or salt thereof). The assays from which the IC50 determinations were made were performed as follows. […] Louis, Mo.). The assayed hydroxamic acid samples were incubated in MicrofluorTM White Plates (Dynatech, Chantilly, Va.) and analyzed on a Perkin Elmer […] plate reader (Norwalk, Conn.). The excitation wavelength was 328 nm, and the emission wavelength-415 nm. […] As stated in the previous paragraph, samples containing varying concentrations of the same assayed hydroxamic acid were prepared. Inhibition was measured as a reduction in fluorescent intensity as a function of MMP inhibitor concentration. […] All values in Table 2 are given in nM units. The IC50 measurements are in parenthesis.

| SMILES | IC50 [µM] |
| --- | --- |
| CCCCOc1ccc(N2CCN(S(=O)(=O)C3(C(=O)NO)CCN(c4ccc(C)cc4)CC3)CC2)cc1 [Example 295] | > 10 |
| CCCCOc1ccc(N2CCN(S(=O)(=O)C3(C(=O)NO)CCN(C4CC4)CC3)CC2)cc1 [Example 301] | > 10 |
| C#CCN1CCC(C(=O)NO)(S(=O)(=O)N2CCN(c3ccc(OCCCC)cc3)CC2)CC1 [Example 303] | > 10 |
| CCCCOc1ccc(N2CCN(S(=O)(=O)C3(C(=O)NO)CCN(c4ccc(C)cc4)CC3)CC2)cc1F [Example 296] | > 10 |
| COCCOc1ccc(N2CCN(S(=O)(=O)C3(C(=O)NO)CCN(C4CC4)CC3)CC2)cc1F [Example 297] | > 10 |
| CCCCOc1ccc(N2CCN(S(=O)(=O)C3(C(=O)NO)CCN(CC4CC4)CC3)CC2)cc1 [Example 298] | > 10 |
